# Test results taken from patent publication US20190216761A1, “COMPOSITIONS COMPRISING 15-HEPE AND METHODS OF USING THE SAME” (Afimmune Limited, priority 2015, published 2019).
# Marks after values point to notes of the source that are not given here.
# Key:
# rPPARγ = target: T1, rPPARγ (Rattus norvegicus, UniProt O88275); experiment: PPAR antagonist reporter assay (reference agonist at EC80); format: cell-based
# T1 construct: expressed in transfected cells
# T1 sequence (O88275 238-503 limits assumed): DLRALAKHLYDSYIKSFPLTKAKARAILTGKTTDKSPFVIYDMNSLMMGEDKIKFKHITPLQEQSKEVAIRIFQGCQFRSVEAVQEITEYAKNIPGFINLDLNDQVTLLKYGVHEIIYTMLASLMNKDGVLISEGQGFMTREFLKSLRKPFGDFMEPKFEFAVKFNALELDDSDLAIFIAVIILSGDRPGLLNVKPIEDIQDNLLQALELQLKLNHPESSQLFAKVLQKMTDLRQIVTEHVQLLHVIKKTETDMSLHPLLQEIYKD
# Description: (§1) This study utilized proprietary reporter cells expressing a hybrid receptor comprising the N-terminal Gal4 DNA binding domain fused to the ligand binding domain of the specific human nuclear receptor (hPPARα, hPPARδ, and hPPARγ) and rat nuclear receptor (rPPARα, rPPARδ, and rPPARγ). The reporter vectors used in this Example comprise the firefly luciferase gene functionally linked to the Gal4 upstream activation sequence.
# (§2) Nuclear Receptor assay was performed by suspending Reporter Cells in CRM containing 10% charcoal stripped FBS. 2×-EC80 concentrations of the appropriate reference agonist were then added to the Reporter Cell suspension, and 100 μL of the mixture dispensed into wells of a white 96-well plate. Test compounds were diluted using compound screening medium (CSM) containing 10% charcoal stripped FBS to generate “2×-concentration” treatment media. Immediately after this dilution step, 100 μL of each diluted 2×-concentration treatment medium was dispensed (in triplicate) into the Reporter Cell-containing assay wells.
# (§3) After incubation at 37° C. for 24 hours, the treatment media was discarded. Each well was rinsed once with LCM Buffer; LCM substrate was then added. After incubation for 30 minutes at 37° C., fluorescence was measured to determine the relative number of live cells per assay well. LCM substrate was then discarded and 100 μL of Luciferase Detection Reagent substrate was added to each well. RLUs were quantified from each well to determine nuclear receptor activities.
# hPPARα = target: T2, hPPARα (Homo sapiens, UniProt Q07869); experiment: as above; format: cell-based
# T2 construct: expressed in transfected cells
# T2 sequence (Q07869 239-466 limits assumed): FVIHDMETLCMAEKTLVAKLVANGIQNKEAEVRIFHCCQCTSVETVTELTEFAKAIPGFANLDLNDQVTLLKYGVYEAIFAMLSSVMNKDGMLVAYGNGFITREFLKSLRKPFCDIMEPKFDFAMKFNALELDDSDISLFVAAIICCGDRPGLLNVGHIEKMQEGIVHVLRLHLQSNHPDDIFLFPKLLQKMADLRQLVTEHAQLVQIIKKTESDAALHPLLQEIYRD
# Description: as §1, §2, §3
# rPPARδ = experiment: PPAR agonist reporter assay (Gal4 hybrid receptor, luciferase); format: cell-based, rat
# Description: as §1
# Nuclear Receptor assay was performed by dispensing 100 μL of a suspension of Reporter Cells in Cell Recovery Medium (CRM) containing 10% charcoal stripped FBS into each well of a white 96-well plate. Test compounds were diluted using compound screening medium (CSM) containing 10% charcoal stripped FBS to generate “2×-concentration” treatment media. Immediately after this dilution step, 100 μL of each diluted 2×-concentration treatment medium was dispensed (in triplicate) into the Reporter Cell-containing assay wells.
# After incubation at 37° C. for 24 hours, the treatment media was discarded. 100 μL of Luciferase Detection Reagent substrate was added to each well and RLUs were quantified from each well to determine nuclear receptor activities.
# hPPARα Reporter Cells = experiment: Live cell multiplex assay; format: cell-based
# Description: as §1, §2, §3
# rPPARδ Reporter Cells = experiment: Live cell multiplex assay; format: cell-based
# Description: as §1, §2, §3
structure (smiles),measurement,setting,value
"CC/C=C\C[C@H](O)/C=C/C=C\C/C=C\C/C=C\CCCC(=O)OCC [15-HEPE-EE, 15-HEPE ethyl ester]","% Inhibition of agonist-stimulated receptor activity vs. 0.10% DMSO, rPPAR-γ",rPPARγ; 137 nM,10%
same,"% Inhibition of agonist-stimulated receptor activity vs. 0.10% DMSO, rPPAR-γ",rPPARγ; 412 nM,−13%
same,"% Inhibition of agonist-stimulated receptor activity vs. 0.10% DMSO, rPPAR-γ","rPPARγ; 1,235 nM",−7.6%
same,"% Inhibition of agonist-stimulated receptor activity vs. 0.10% DMSO, rPPAR-γ","rPPARγ; 3,704 nM",−6.7%
same,"% Inhibition of agonist-stimulated receptor activity vs. 0.10% DMSO, rPPAR-γ","rPPARγ; 11,111 nM",−4.1%
same,"% Inhibition of agonist-stimulated receptor activity vs. 0.10% DMSO, rPPAR-γ","rPPARγ; 33,333 nM",8.4%
same,"% Inhibition of agonist-stimulated receptor activity vs. 0.10% DMSO, rPPAR-γ","rPPARγ; 100,000 nM",26%
same,"% Inhibition of agonist-stimulated receptor activity vs. 0.10% DMSO, rPPAR-γ","rPPARγ; 300,000 nM",93%
same,"inhibition of rat PPARs (in words), rPPARγ",rPPARγ; at higher test concentrations,apparent inhibition
same,"% Inhibition of agonist-stimulated receptor activity vs. 0.10% DMSO, hPPAR-α",hPPARα; 137 nM,49%
same,"% Inhibition of agonist-stimulated receptor activity vs. 0.10% DMSO, hPPAR-α",hPPARα; 412 nM,21%
same,"% Inhibition of agonist-stimulated receptor activity vs. 0.10% DMSO, hPPAR-α","hPPARα; 1,235 nM",13%
same,"% Inhibition of agonist-stimulated receptor activity vs. 0.10% DMSO, hPPAR-α","hPPARα; 3,704 nM",14%
same,"% Inhibition of agonist-stimulated receptor activity vs. 0.10% DMSO, hPPAR-α","hPPARα; 11,111 nM",14%
same,"% Inhibition of agonist-stimulated receptor activity vs. 0.10% DMSO, hPPAR-α","hPPARα; 33,333 nM",26%
same,"% Inhibition of agonist-stimulated receptor activity vs. 0.10% DMSO, hPPAR-α","hPPARα; 100,000 nM",40%
same,"% Inhibition of agonist-stimulated receptor activity vs. 0.10% DMSO, hPPAR-α","hPPARα; 300,000 nM",83%
same,"inhibition of human PPARs (in words), hPPARα",hPPARα; at higher test concentrations,apparent inhibition
same,Fold-Activation (vs. 0.10% DMSO) rPPAR-δ,rPPARδ; 137 nM,1.3 fold
same,Fold-Activation (vs. 0.10% DMSO) rPPAR-δ,rPPARδ; 412 nM,1.5 fold
same,Fold-Activation (vs. 0.10% DMSO) rPPAR-δ,"rPPARδ; 1,235 nM",1.6 fold
same,Fold-Activation (vs. 0.10% DMSO) rPPAR-δ,"rPPARδ; 3,704 nM",1.8 fold
same,Fold-Activation (vs. 0.10% DMSO) rPPAR-δ,"rPPARδ; 11,111 nM",2.4* fold
same,Fold-Activation (vs. 0.10% DMSO) rPPAR-δ,"rPPARδ; 33,333 nM",2.7* fold
same,Fold-Activation (vs. 0.10% DMSO) rPPAR-δ,"rPPARδ; 100,000 nM",7.2* fold
same,Fold-Activation (vs. 0.10% DMSO) rPPAR-δ,"rPPARδ; 300,000 nM",1.9 fold
same,agonism activity against rat PPARδ (in words),rPPARδ; at medium to higher doses in the dose response curve,mild to moderate agonism activity
same,"% Live cells vs. 0.10% DMSO, hPPAR-α",hPPARα Reporter Cells; 137 nM,96%
same,"% Live cells vs. 0.10% DMSO, hPPAR-α",hPPARα Reporter Cells; 412 nM,94%
same,"% Live cells vs. 0.10% DMSO, hPPAR-α","hPPARα Reporter Cells; 1,235 nM",119%
same,"% Live cells vs. 0.10% DMSO, hPPAR-α","hPPARα Reporter Cells; 3,704 nM",120%
same,"% Live cells vs. 0.10% DMSO, hPPAR-α","hPPARα Reporter Cells; 11,111 nM",117%
same,"% Live cells vs. 0.10% DMSO, hPPAR-α","hPPARα Reporter Cells; 33,333 nM",115%
same,"% Live cells vs. 0.10% DMSO, hPPAR-α","hPPARα Reporter Cells; 100,000 nM",69%
same,"% Live cells vs. 0.10% DMSO, hPPAR-α","hPPARα Reporter Cells; 300,000 nM",35%
same,"% Live cells vs. 0.10% DMSO, rPPAR-δ",rPPARδ Reporter Cells; 137 nM,99%
same,"% Live cells vs. 0.10% DMSO, rPPAR-δ",rPPARδ Reporter Cells; 412 nM,97%
same,"% Live cells vs. 0.10% DMSO, rPPAR-δ","rPPARδ Reporter Cells; 1,235 nM",98%
